Measurements taken from patent publication US8404710B2, “Phosphodiesterase 10A inhibitor” (Kyorin Pharmaceutical Co., Ltd., priority 2002, dated 2013).

Key:
PDE10A = PDE10A (Homo sapiens, UniProt Q9Y233); conditions: human PDE10A gene product; cited from earlier work
PDE1A3 = molecular target: T1, PDE1A3 (Homo sapiens, UniProt P54750); test: Inhibition of recombinant human PDE1A3 by ibudilast; type: biochemical
T1 construct: cDNA of full length PDEs, specifically, PDE1A3; made in house; host or cells: Sf9 insect cells (baculovirus)
T1 sequence (P54750 whole entry): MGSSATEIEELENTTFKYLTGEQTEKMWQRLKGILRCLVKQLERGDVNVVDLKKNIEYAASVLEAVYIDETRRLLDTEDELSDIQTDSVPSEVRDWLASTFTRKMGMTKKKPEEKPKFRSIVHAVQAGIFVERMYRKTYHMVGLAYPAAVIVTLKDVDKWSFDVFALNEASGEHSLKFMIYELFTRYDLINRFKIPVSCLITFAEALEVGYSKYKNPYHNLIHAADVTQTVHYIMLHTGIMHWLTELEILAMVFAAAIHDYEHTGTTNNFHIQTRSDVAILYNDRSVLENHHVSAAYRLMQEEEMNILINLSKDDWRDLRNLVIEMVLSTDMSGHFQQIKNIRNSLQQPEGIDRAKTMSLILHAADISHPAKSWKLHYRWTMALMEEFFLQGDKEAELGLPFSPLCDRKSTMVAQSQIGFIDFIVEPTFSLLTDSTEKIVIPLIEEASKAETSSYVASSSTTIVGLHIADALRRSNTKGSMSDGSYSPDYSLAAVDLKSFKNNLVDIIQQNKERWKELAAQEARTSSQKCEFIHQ

PDE2A3 = molecular target: T2, PDE2A3 (Homo sapiens, UniProt O00408); test: Inhibition of recombinant human PDE2A3 by ibudilast; type: biochemical; conditions: PDE 2A3, substrate cAMP 2 μM
T2 construct: cDNA of full length PDEs, specifically, PDE1A3, PDE2A3; made in house; host or cells: Sf9 insect cells (baculovirus)
T2 sequence (O00408 whole entry): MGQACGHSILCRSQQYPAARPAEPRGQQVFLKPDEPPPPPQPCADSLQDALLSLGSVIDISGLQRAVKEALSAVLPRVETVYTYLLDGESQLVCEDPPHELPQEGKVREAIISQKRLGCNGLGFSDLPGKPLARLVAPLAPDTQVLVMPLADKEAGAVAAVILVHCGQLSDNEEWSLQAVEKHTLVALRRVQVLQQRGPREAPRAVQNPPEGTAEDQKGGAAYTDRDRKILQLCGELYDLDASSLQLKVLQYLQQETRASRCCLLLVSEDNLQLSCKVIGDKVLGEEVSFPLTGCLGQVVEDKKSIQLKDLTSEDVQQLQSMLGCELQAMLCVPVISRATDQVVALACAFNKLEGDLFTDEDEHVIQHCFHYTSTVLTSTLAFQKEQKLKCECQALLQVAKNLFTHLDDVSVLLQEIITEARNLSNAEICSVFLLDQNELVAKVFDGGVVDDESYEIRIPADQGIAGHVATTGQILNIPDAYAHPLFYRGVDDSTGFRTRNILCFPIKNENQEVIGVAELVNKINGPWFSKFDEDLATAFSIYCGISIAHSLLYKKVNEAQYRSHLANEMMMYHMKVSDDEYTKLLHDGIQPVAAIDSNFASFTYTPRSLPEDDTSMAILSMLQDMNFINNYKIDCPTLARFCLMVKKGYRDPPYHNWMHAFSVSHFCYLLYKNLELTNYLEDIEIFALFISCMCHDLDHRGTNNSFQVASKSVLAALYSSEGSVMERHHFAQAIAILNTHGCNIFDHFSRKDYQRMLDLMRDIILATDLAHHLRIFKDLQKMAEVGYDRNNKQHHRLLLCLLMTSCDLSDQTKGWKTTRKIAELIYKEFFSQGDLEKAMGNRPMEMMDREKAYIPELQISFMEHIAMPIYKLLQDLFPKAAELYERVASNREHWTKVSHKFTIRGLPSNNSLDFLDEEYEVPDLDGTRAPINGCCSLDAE

PDE3B = molecular target: T3, PDE3B (Homo sapiens, UniProt Q13370); test: Inhibition of recombinant human PDE3B by ibudilast (Sf9 cell suspension); type: biochemical; conditions: PDE 3B, substrate cAMP 2 μM
T3 construct: cDNA of full length PDEs, specifically, PDE1A3, PDE2A3, PDE3A, PDE3B; made in house; host or cells: Sf9 insect cells (baculovirus); unpurified cell suspension in RIPA buffer

PDE4A4 = PDE4A4 (Homo sapiens, UniProt P27815); test: Inhibition of recombinant human PDE4A4 by ibudilast; type: biochemical; conditions: PDE 4A4, substrate cAMP 2 μM
Sequence of PDE4A4 (P27815 whole entry): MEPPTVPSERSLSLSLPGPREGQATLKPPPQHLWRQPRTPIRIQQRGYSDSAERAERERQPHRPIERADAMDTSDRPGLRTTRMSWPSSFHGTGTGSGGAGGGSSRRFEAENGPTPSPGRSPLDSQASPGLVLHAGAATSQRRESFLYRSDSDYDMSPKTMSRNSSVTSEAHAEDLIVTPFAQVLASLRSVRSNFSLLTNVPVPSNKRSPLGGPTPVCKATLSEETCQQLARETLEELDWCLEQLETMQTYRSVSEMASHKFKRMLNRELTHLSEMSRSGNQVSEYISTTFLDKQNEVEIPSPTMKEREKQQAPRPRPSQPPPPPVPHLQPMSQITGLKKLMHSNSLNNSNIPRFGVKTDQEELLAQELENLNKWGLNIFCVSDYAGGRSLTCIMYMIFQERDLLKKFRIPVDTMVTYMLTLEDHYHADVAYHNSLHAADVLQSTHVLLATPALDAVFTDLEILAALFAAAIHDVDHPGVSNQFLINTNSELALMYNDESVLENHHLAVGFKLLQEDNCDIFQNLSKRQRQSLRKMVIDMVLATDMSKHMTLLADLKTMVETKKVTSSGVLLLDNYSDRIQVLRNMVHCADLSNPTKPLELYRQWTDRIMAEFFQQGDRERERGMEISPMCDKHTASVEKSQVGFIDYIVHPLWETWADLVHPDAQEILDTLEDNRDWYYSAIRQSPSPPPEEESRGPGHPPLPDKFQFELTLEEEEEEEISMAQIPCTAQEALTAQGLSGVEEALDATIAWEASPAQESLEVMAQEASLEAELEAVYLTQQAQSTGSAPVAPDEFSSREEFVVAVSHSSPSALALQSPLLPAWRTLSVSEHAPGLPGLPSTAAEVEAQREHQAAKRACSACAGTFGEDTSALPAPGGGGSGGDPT

PDE4C2 = molecular target: T4, PDE4C2 (Homo sapiens, UniProt Q08493); test: Inhibition of recombinant human PDE4C2 by ibudilast; type: biochemical; conditions: PDE 4C2, substrate cAMP 2 μM
T4 construct: cDNA of full length PDEs, specifically, PDE1A3, PDE2A3, PDE3A, PDE3B, PDE4A4, PDE4B2, PDE4C2; made in house; host or cells: Sf9 insect cells (baculovirus)

PDE4D3 = molecular target: T5, PDE4D3 (Homo sapiens, UniProt Q08499); test: Inhibition of recombinant human PDE4D3 by ibudilast; type: biochemical; conditions: PDE 4D3, substrate cAMP 2 μM
T5 construct: cDNA of full length PDEs, specifically, PDE1A3, PDE2A3, PDE3A, PDE3B, PDE4A4, PDE4B2, PDE4C2, PDE4D3; made in house; host or cells: Sf9 insect cells (baculovirus)

PDE7A2 = molecular target: T6, PDE7A2 (Homo sapiens, UniProt Q13946); test: Inhibition of recombinant human PDE7A2 by ibudilast; type: biochemical; conditions: PDE 7A2, substrate cAMP 0.2 μM
T6 construct: cDNA of full length PDEs, specifically, PDE1A3, PDE2A3, PDE3A, PDE3B, PDE4A4, PDE4B2, PDE4C2, PDE4D3, PDE5A1, PDE5A2, PDE5A3, PDE7A2; made in house; host or cells: Sf9 insect cells (baculovirus)

PDE8A1 = molecular target: T7, PDE8A1 (Homo sapiens, UniProt O60658); test: Inhibition of recombinant human PDE8A1 by ibudilast; type: biochemical; conditions: PDE 8A1, substrate cAMP 0.2 μM
T7 construct: cDNA of full length PDEs, specifically, PDE1A3, PDE2A3, PDE3A, PDE3B, PDE4A4, PDE4B2, PDE4C2, PDE4D3, PDE5A1, PDE5A2, PDE5A3, PDE7A2, PDE8A1; made in house; host or cells: Sf9 insect cells (baculovirus)
T7 sequence (O60658 whole entry): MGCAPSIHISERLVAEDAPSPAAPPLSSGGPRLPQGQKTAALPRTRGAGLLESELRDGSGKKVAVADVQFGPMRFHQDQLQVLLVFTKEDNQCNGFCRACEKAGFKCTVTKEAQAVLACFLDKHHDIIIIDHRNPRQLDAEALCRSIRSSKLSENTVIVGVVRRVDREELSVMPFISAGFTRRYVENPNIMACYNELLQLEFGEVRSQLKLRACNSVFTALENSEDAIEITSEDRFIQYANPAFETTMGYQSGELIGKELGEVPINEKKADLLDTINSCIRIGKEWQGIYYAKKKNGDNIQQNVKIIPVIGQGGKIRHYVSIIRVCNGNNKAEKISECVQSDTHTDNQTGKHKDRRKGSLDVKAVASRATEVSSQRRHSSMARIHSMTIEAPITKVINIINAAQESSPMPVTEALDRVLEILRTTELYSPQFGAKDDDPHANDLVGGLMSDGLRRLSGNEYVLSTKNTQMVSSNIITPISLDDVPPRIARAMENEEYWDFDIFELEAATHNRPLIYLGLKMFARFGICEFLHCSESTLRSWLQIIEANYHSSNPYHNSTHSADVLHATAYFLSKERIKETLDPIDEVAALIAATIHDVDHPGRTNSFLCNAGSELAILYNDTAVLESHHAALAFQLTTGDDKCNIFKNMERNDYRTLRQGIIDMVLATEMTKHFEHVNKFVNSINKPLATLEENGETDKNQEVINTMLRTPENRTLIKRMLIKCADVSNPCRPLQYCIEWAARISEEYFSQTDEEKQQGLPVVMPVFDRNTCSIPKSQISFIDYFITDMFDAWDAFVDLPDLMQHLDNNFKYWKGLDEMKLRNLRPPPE

PDE9A2 = molecular target: T8, PDE9A2 (Homo sapiens, UniProt O76083); test: Inhibition of recombinant human PDE9A2 by ibudilast; type: biochemical; conditions: PDE 9A2, substrate cGMP 0.2 μM
T8 construct: cDNA of full length PDEs, specifically, PDE1A3, PDE2A3, PDE3A, PDE3B, PDE4A4, PDE4B2, PDE4C2, PDE4D3, PDE5A1, PDE5A2, PDE5A3, PDE7A2, PDE8A1, PDE9A2; made in house; host or cells: Sf9 insect cells (baculovirus)
T8 sequence (O76083 1-533 isoform O76083-2): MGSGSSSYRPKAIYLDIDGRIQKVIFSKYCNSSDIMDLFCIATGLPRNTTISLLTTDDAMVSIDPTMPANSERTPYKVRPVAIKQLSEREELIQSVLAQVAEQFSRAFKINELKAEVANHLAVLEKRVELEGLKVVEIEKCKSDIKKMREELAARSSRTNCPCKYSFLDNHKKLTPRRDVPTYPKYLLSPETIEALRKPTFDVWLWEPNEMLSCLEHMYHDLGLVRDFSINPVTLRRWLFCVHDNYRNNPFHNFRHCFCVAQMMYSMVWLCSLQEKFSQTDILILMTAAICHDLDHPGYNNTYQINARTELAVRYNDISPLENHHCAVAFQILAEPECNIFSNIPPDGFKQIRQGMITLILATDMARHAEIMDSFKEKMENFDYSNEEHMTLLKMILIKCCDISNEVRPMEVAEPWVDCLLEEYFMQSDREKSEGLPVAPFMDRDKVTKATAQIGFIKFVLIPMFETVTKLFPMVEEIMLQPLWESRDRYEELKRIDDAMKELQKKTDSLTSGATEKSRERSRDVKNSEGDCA

PDE10A1 = molecular target: T9, PDE10A1 (Homo sapiens, UniProt Q9Y233); test: Inhibition of recombinant human PDE10A1 by ibudilast; type: biochemical
T9 construct: cDNA of full length PDEs, specifically, PDE1A3, PDE2A3, PDE3A, PDE3B, PDE4A4, PDE4B2, PDE4C2, PDE4D3, PDE5A1, PDE5A2, PDE5A3, PDE7A2, PDE8A1, PDE9A2, PDE10A1; made in house; host or cells: Sf9 insect cells (baculovirus)
T9 sequence (Q9Y233 1-779 isoform Q9Y233-1): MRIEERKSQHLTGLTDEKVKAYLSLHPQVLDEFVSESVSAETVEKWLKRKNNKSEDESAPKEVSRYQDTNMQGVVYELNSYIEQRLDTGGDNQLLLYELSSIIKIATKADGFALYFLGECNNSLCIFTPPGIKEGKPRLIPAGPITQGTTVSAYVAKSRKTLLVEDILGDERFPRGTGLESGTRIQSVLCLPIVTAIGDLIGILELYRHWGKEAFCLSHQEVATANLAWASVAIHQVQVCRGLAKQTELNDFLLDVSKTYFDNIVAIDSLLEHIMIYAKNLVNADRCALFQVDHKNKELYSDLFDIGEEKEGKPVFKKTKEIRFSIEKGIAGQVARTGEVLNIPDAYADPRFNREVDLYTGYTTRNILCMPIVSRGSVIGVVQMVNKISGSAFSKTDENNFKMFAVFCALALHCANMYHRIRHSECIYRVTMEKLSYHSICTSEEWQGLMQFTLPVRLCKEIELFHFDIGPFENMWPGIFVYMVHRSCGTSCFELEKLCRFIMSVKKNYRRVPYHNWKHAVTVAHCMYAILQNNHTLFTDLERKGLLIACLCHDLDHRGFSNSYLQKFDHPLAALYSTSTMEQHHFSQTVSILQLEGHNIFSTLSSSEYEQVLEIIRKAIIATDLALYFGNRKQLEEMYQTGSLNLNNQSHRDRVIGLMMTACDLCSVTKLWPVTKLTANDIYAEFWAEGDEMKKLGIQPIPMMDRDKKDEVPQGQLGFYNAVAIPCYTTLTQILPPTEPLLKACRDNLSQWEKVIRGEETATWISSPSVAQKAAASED

PDE11A1 = molecular target: T10, PDE11A1 (Homo sapiens, UniProt Q9HCR9); test: Inhibition of recombinant human PDE11A1 by ibudilast; type: biochemical
T10 construct: cDNA of full length PDEs, specifically, PDE1A3, PDE2A3, PDE3A, PDE3B, PDE4A4, PDE4B2, PDE4C2, PDE4D3, PDE5A1, PDE5A2, PDE5A3, PDE7A2, PDE8A1, PDE9A2, PDE10A1, and PDE11A1; made in house; host or cells: Sf9 insect cells (baculovirus)
T10 sequence (Q9HCR9 445-933): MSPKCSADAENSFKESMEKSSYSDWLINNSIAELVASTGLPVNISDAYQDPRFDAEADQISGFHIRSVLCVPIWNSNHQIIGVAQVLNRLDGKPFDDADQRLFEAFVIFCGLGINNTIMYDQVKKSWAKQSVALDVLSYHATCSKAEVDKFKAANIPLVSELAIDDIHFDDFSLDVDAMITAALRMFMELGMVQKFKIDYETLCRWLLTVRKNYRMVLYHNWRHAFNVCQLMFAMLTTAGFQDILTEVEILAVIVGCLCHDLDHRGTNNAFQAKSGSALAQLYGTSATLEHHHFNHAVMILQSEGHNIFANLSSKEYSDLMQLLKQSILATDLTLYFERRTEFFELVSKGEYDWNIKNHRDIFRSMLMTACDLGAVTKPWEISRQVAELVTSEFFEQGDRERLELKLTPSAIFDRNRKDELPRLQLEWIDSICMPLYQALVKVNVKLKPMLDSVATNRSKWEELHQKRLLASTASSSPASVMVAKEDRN

Row | IC50 (PDE1A3; PDE 1A3, substrate cAMP 2 μM) [µM] | IC50 (PDE1A3; PDE 1A3, substrate cGMP 2 μM) [µM] | IC50 (PDE2A3) [µM] | IC50 (PDE3B) [µM] | IC50 (PDE4A4) [µM] | IC50 (PDE4C2) [µM] | IC50 (PDE4D3) [µM] | IC50 (PDE7A2) [µM] | IC50 (PDE8A1) [µM] | IC50 (PDE9A2) [µM] | IC50 (PDE10A1; PDE 10A1, substrate cAMP 0.2 μM) [µM] | IC50 (PDE10A1; PDE 10A1, substrate cGMP 2 μM) [µM] | inhibition of PDE10A1 compared with other PDEs (PDE10A1; in vitro, recombinant human PDE) | IC50 (PDE11A1; PDE 11A1, substrate cAMP 2 μM) [µM] | IC50 (PDE11A1; PDE 11A1, substrate cGMP 0.2 μM) [µM] | SMILES | inhibition of PDE10A (PDE10A)
1 | – | – | – | – | – | – | – | – | – | – | – | – | – | – | – | OCCN(CCO)c1nc(N2CCCCC2)c2nc(N(CCO)CCO)nc(N3CCCCC3)c2n1 [dipyridamole] | inhibited
2 | 40 | 121 | 78 | 266 | 6 | 11 | 6 | 115 | 49 | > 400 | 3 | 1 | particularly strong inhibition | 17 | 36 | CC(C)C(=O)c1c(C(C)C)nn2ccccc12 [ibudilast, 3-isobutyryl-2-isopropyl pyrazolo[1,5-a]pyridine] | –
